According to paper PMC2686615 (International Immunology, 2009):
Where a SMILES comes first, the peptide text is derived from it.

target: soluble DQ8 proteins (HLA-DQ8, DQA1*0301/DQB1*0302) (Homo sapiens, UniProt P01909+P01920, A209T/A45G/C70Q/D89A/DUP78-78/E183D/E77G/F237L/G63E/H199R/I129T/K197E/L178F/L74F/L98V/Q57E/Q76R/S185I/S97I/T217I/T49S/V73L/Y58L); assay type: binding

Structure (SMILES) | IC50
CC[C@H](C)[C@H](NC(=O)[C@H](C)N)C(=O)N[C@@H](CC(C)C)C(=O)N[C@H](C(=O)N[C@@H](CC(=O)O)C(=O)N[C@@H](C)C(=O)N[C@@H](C)C(=O)N[C@@H](Cc1c[nH]cn1)C(=O)N[C@@H](CC(C)C)C(=O)N[C@@H](CC(C)C)C(=O)N[C@H](C(=O)N[C@@H](CC(=O)O)C(=O)N[C@@H](CC(C)C)C(=O)N[C@H](C(=O)O)[C@@H](C)O)[C@@H](C)CC)[C@@H](C)O [ZnT8 98–111] (H-AILTDAAHLLIDLT-OH) | 7.2 µM
CC[C@H](C)[C@H](NC(=O)[C@H](CCC(=O)O)NC(=O)[C@H](C)NC(=O)[C@H](CCCNC(=N)N)NC(=O)[C@H](Cc1ccc(O)cc1)NC(=O)[C@H](Cc1c[nH]c2ccccc12)NC(=O)CNC(=O)[C@H](Cc1ccccc1)NC(=O)[C@@H](NC(=O)[C@H](CC(C)C)NC(=O)[C@H](CCCNC(=N)N)NC(=O)[C@H](CCCCN)NC(=O)[C@@H](N)CO)[C@@H](C)O)C(=O)N[C@@H](CC(C)C)C(=O)O [ZnT8 128–141] (H-SKRLTFGWYRAEIL-OH) | 20.2 µM
CC[C@H](C)[C@H](NC(=O)CNC(=O)[C@H](C)NC(=O)[C@H](CCC(N)=O)NC(=O)[C@@H](NC(=O)[C@H](CCC(N)=O)NC(=O)[C@H](Cc1ccc(O)cc1)NC(=O)[C@H](CC(=O)O)NC(=O)[C@@H]1CCCN1C(=O)[C@H](Cc1ccc(O)cc1)NC(=O)[C@@H](N)CC(C)C)[C@@H](C)CC)C(=O)N[C@@H](CCSC)C(=O)N[C@H](C(=O)N[C@H](C(=O)O)[C@@H](C)O)[C@@H](C)CC [ZnT8 166–179] (H-LYPDYQIQAGIMIT-OH) | 0.7 µM
CC[C@H](C)[C@H](NC(=O)[C@H](Cc1c[nH]cn1)NC(=O)[C@H](CC(C)C)NC(=O)[C@H](CO)NC(=O)[C@H](Cc1c[nH]cn1)NC(=O)[C@@H](NC(=O)[C@H](CO)NC(=O)[C@@H](NC(=O)[C@@H](NC(=O)CNC(=O)[C@H](CC(=O)O)NC(=O)[C@@H](NC(=O)[C@H](C)N)C(C)C)C(C)C)[C@@H](C)CC)C(C)C)C(=O)N[C@@H](Cc1c[nH]c2ccccc12)C(=O)O [ZnT8 292–305] (H-AVDGVISVHSLHIW-OH) | 18 µM
CC[C@H](C)[C@H](N)C(=O)N[C@@H](CC(C)C)C(=O)N[C@@H](CO)C(=O)N[C@H](C(=O)N[C@@H](Cc1c[nH]cn1)C(=O)N[C@H](C(=O)N[C@@H](C)C(=O)N[C@H](C(=O)N[C@@H](C)C(=O)N[C@@H](C)C(=O)N[C@@H](CO)C(=O)N[C@@H](CCC(N)=O)C(=O)N[C@@H](CC(=O)O)C(=O)N[C@@H](CO)C(=O)O)[C@@H](C)O)C(C)C)C(C)C [ZnT8 313–326] (H-ILSVHVATAASQDS-OH) | 4.9 µM
CC[C@H](C)[C@H](NC(=O)CNC(=O)[C@@H](NC(=O)[C@@H](N)CCCNC(=N)N)[C@@H](C)O)C(=O)N[C@@H](C)C(=O)N[C@@H](CCC(N)=O)C(=O)N[C@@H](C)C(=O)N[C@@H](CC(C)C)C(=O)N[C@@H](CO)C(=O)N[C@@H](CO)C(=O)N[C@@H](Cc1ccccc1)C(=O)N[C@@H](CC(=O)O)C(=O)N[C@@H](CC(C)C)C(=O)N[C@@H](Cc1c[nH]cn1)C(=O)O [ZnT8 330–343] (H-RTGIAQALSSFDLH-OH) | 2.5 µM
CC[C@H](C)[C@H](NC(=O)[C@H](CCC(N)=O)NC(=O)[C@@H](NC(=O)[C@@H](NC(=O)[C@@H](N)CC(C)C)[C@@H](C)O)[C@@H](C)CC)C(=O)N[C@@H](CCC(=O)O)C(=O)N[C@@H](CO)C(=O)N[C@@H](C)C(=O)N[C@@H](C)C(=O)N[C@@H](CC(=O)O)C(=O)N[C@@H](CCC(N)=O)C(=O)N[C@@H](CC(=O)O)C(=O)N1CCC[C@H]1C(=O)N[C@@H](CO)C(=O)O [ZnT8 345–358] (H-LTIQIESAADQDPS-OH) | 2.5 µM
